How the values were obtained:
EGFR = EGFR (Homo sapiens, UniProt P00533); assay: Surface plasmon resonance (SPR); assay type: binding
Description: The analysis of biomolecular interactions was conducted utilising a Biacore S200 biosensor system (S200, Biacore, China). Briefly, the EGFR (20 μg/mL) was immobilised by amine coupling on the surface of a CM5 sensor chip (29104988, Cytiva, China) with a resonance unit (RU) of approximately 2000, using a sodium acetate buffer (10 mM, pH 4) as the immobilisation solution. In order to assess the affinity of SC17-2 for the epidermal EGFR, SC17-2 was injected at a flow rate of 30 μL/min onto a chip containing immobilised EGFR. The injection of SC17-2 was carried out at a flow rate of 30 μL/min at concentrations ranging from 5 to 500 μg/mL. The RU were recorded. The binding dissociation constants (KD) were determined using BiacoreTM Insight software.

EGF mRNA = assay: qPCR EGF mRNA in HaCaT; assay type: cell-based, Human; conditions: SC17-2 20 μg/mL, n = 6
Description: (§1) HaCaT cells were treated as above, washed twice with PBS and lysed using Trizol for 5 min, after which 200 μL of chloroform was added and shaken vigorously for 30 s. The cells were centrifuged for 15 min to separate the upper and lower layers (12,500 g, 4 °C). The supernatant was vortexed with an equal amount of isopropanol and left to stand for 10 min, and then centrifuged again under the same conditions to retain only the white precipitate. 500 μL of 75 % ethanol was added and centrifuged (12000 rpm, 4 °C, 10 min) and the operation was repeated twice. Afterwards, DEPC was used for dissolution and the concentration was determined by nanodrop. One-step reverse transcription to DNA was performed using 5 × MIX, after which primers and 2 × MIX were added and placed. qPCR was performed (LightCycler96, F. Hoffmann-La Roche, Swiss).

HSF cells = assay: In vitro wound healing (migration) assay, HSF; assay type: cell-based, Human; conditions: SC17-2 concentrations exceeding 10 μg/mL, 16 h
[1] = Circular dichroism spectroscopy; assay type: physicochemical
CD31 = CD31 immunofluorescence of mouse wound sections (angiogenesis); assay type: in vivo; conditions: 13 days
Description: Use scissors to remove the tissue around the wound, put the tissue into 4 % paraformaldehyde solution, put the tissue in 4 °C for 24 h, use a tissue embedding machine for embedding, use a rotary slicer to section the tissue, put the section into environmentally friendly dewaxing solution to dewax for 3 times, 10 min each time, then use anhydrous ethanol to treat the section for 3 times, 5 min each time, rinse with distilled water and then repair the section by EDTA antigen repair solution. The slides were then incubated overnight at 4 °C with Anti-CD31 Mouse mAb as primary antibody and at room temperature for 50 min, protected from light, in PBS (pH 7.4), shaken and washed 3 times for 5 min each time on a decolourising shaker. Incubate at room temperature for 10 min. Images were captured using a scanner (Pannoramic MIDI), and graphics were processed using imageJ. The results were calculated as follows: relative staining area of blood vessels = An/average (Ac), An indicates the fluorescence staining area of CD31 obtained from the current sample by ImageJ statistics, […], and Ac is the fluorescence staining area of CD31 of all control samples.
ImageJ was used to quantify the percentage of stained area for Masson and the percentage of fluorescent area for CD31. All data were analysed by GraphPad Prism 9.5 software. Data were expressed as mean ± SEM. Comparisons between multiple groups were performed by using one-way analysis of variance (ANOVA) and Tukey's multiple comparison test. Differences between groups were commonly tested by ANOVA, P < 0.05 was considered statistically significant.

TGF-β1 mRNA = assay: qPCR TGF-β1 mRNA in HaCaT; assay type: cell-based, Human; conditions: SC17-2, HaCaT
Description: as §1

TGF-β = assay: Western blot TGF-β in HaCaT; assay type: cell-based, Human; conditions: SC17-2 20 μg/mL, 24 h (16 h elsewhere in the source), n = 3
Description: (§2) HaCaT was inoculated in 12-well plates (2 × 10^5 cells/well) and cultured for 24 h. Afterwards, HaCaT cells were treated with equal amounts of VEGF, SC17-2, and PBS for 16 h. Cells were washed with PBS, after which the samples were collected and added to 1 mL of RIPA lysate containing protease inhibitors and phosphatase inhibitors and placed on ice for 30 min. Allowed to be after sufficient lysis, the supernatant was centrifuged and collected to determine the protein concentration using a nanodrop, followed by the addition of SDS sampling buffer and heating at 95 °C for 10 min. Samples were loaded and run on a gel block based on the determined sample concentration, and then electrotransferred onto a 0.45 μm PVDF membrane. […] After washing three times with TBST, proteins were visualised and scanned by enhanced chemiluminescence using the ChemiDoc XRS imaging system (Bio-Rad, Hercules, CA, USA).

p-ERK/ERK = assay: Western blot p-ERK/ERK in HaCaT; assay type: cell-based, Human; conditions: SC17-2 20 μg/mL, 24 h (16 h elsewhere in the source), n = 3
Description: as §2

BALB/c mice = assay: Mouse full-thickness skin wound healing; assay type: in vivo; conditions: for wound area: 20 μL daily on wound, relative to day 1, mean ± SEM, n = 7
Description: Mice were anaesthetised with sodium pentobarbital 2 % by intraperitoneal injection (0.1 mL/20 g mouse body weight), and after anaesthesia, hair was removed from the back using depilatory cream and power scissors, and circular full-thickness skin wounds of the same diameter were marked and created on the back of each mouse using circular stamps and red sealant. The mouse wounds were then covered and infiltrated daily with 20 μL of different concentrations of SC17-2 or 20 ng/mL VEGF, and an equal volume of saline was used in the control group. The mice were anaesthetised by isoflurane nebulisation (concentration 2 %) every two days and then placed under an optical camera to photograph the effect of the wound area.
Sodium pentobarbital (2 %) was utilised for the anaesthetisation of mice by intraperitoneal injection (0.1 mL/20 g of mouse body weight). Subsequent to the induction of anaesthesia, the dorsal hair was removed using depilatory creams and electric scissors. Thereafter, circular full skin wounds of the same diameter were marked and created on the back of each mouse using circular stamps and red stencils. Mouse wounds were then covered and infiltrated daily with 20 μL of different concentrations of SC17-2 or 20 ng/mL of VEGF, and an equal volume of saline was used in the control group. Mice were anaesthetised every two days using isoflurane nebulisation followed by anaesthesia (concentration 2 %), after which they were placed under an optical camera to photograph the effect of wound area. After 13 days of treatment, mice were anaesthetised using isoflurane nebulisation followed by injection of an overdose of sodium pentobarbital to euthanise the mice (200 mg/kg). The wounds and their surrounding tissues were then excised for histopathological evaluation (Masson and H&E staining) and analysed by Enface immunofluorescence staining.

TGF-α mRNA = assay: qPCR TGF-α mRNA in HaCaT; assay type: cell-based, Human; conditions: SC17-2 20 μg/mL, n = 6
Description: as §1

SFMPLSIPIMCKMLSKC [SC17-2, peptide of the pleskein family from the skin transcriptome of the frog Nanorana parkeri, made by solid-phase synthesis]
EGFR binding, dose dependence (EGFR): binds in a dose-dependent manner | mRNA expression of EGF (EGF mRNA): significantly elevated | HSF migration (HSF cells): notable enhancement | secondary structure composition ([1]; 0 mM (H2O) and 60 mM SDS): primarily of random coil and β-sheet structures, with only trace amounts of γ-turn and α-helix structures | secondary structure, change with SDS ([1]; 0 mM (H2O) vs 60 mM SDS): remained largely unchanged | number of blood vessels in wounds, dose dependence (CD31; CD31 images): number of blood vessels in the wounds increased with the increase of SC17-2 concentration | blood vessel formation (CD31 staining) (CD31; SC17-2 5 μg/mL, n = 9): promoted blood vessel formation | proangiogenic effect compared with VEGF (CD31 staining) (CD31; SC17-2 10 and 20 μg/mL, n = 9): more pronounced than that of VEGF | TGF-β1 expression (qPCR) (TGF-β1 mRNA): simultaneous increase | expression of TGF-β (TGF-β): significantly increase the expression of TGF-β | ERK phosphorylation (p-ERK/ERK): significantly increased ERK phosphorylation | reduction of wound area vs control, significance (BALB/c mice; SC17-2 20 μg/mL, at times other than day 9): significantly promote the reduction of wound area | reduction of wound area vs control on day 9 (BALB/c mice; SC17-2 20 μg/mL, day 9): non-significant difference | final reduction in wound area, dose dependence (BALB/c mice; after 13 days of treatment): metrologically dependent on SC17-2 | wound area (BALB/c mice; day 3, SC17-2 20 μg/mL): 77.84 ± 3.34% | wound area (BALB/c mice; day 5, SC17-2 20 μg/mL): 54.43 ± 2.53% | wound area compared with VEGF (BALB/c mice; day 13, SC17-2 20 μg/mL vs VEGF): significantly smaller | wound area (BALB/c mice; day 13, SC17-2 20 μg/mL): 2.65 ± 0.72% | wound area reduction, ratio to saline-treated control (BALB/c mice; days 3 and 5, SC17-2 20 μg/mL): ~1.3 fold | mRNA expression of TGF-α (TGF-α mRNA): significantly elevated

From PMC12957798, “Adaptation of plateau frog peptide: From antimicrobial to angiogenic and proliferative functions” (Journal of Advanced Research, 2025)
